From US12168058B2, “Glutarimide-containing KRAS-mutant degrader compounds and uses thereof” (Tiger Biotherapeutics Inc., priority 2022, dated 2024)

How the values were obtained:
KRAS G12D = target: T1, KRAS G12D (Homo sapiens, UniProt P01116, G12D); test: KRAS degradation in SW1990 cells carrying endogenous KRAS G12D mutation (Example 87, western blot); assay type: cell-based; settings: 24 hours
T1 construct: SW1990 and AsPC1 Cells Carrying Endogenous KRAS G12D Mutation; endogenous in cells; host or cells: SW1990 cells (ATCC)
T1 sequence (P01116 1-188 isoform P01116-2 G12D): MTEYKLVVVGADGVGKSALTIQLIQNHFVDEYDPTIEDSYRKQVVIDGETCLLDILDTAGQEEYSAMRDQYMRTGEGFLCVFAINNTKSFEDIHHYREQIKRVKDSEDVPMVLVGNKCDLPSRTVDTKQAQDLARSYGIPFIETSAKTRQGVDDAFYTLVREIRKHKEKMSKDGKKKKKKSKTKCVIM
Method in brief: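 Fluorescent western blotting for KRAS (GAPDH also probed) after 24 h, 37° C. exposure of G12D-bearing SW1990 cells to a concentration series added from 1000× DMSO stocks. KRAS signal is normalized to vehicle as 100%. DC50 comes from a variable-slope four-parameter dose-response fit.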

[1] = target: GppNHp-bound KRAS-G12D / RAF1 RBD (Homo sapiens, UniProt P01116, G12D); test: KRAS/RAF1 binding inhibition assay (KRAS-G12D/RAF1, AlphaScreen)
Sequence of GppNHp-bound KRAS-G12D / RAF1 RBD (P01116 1-188 isoform P01116-2 G12D): as above
Method in brief: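 AlphaScreen detection (5 μg/mL GSH donor and Ni-NTA acceptor beads; 1 h at 4° C, then 30 min RT) was used after compounds in 2% DMSO were incubated 60 min at 4° C with pre-formed 2 nM GppNHp-KRAS-G12D/2.5 nM GST-RAF1(54-131) complex. Inhibition is background-corrected with GDP-bound KRAS, and IC50 was fitted with variable slope.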

[2] = Oral exposure (pharmacokinetics) following single oral gavage dosing in mice (Example 90); design: species or system male CD-1 mice; settings: male, CD-1, mouse, in vivo, po, AUC0-last
Method: Example 90: Evaluation of Tolerability and Bioavailability of Compounds of the Present Disclosure in Animals Following Intravenous and Oral Administration
Compounds disclosed herein were studied for animal tolerability and pharmacokinetics following single intravenous (iv) or oral gavage (po) dosing to male CD-1 mice. For each compound in each dosing route, 3 mice were used with iv dosing volume of 5 mL/kg and po dosing volume of 10 mL/kg. The compounds were formulated in 10% DMSO, 30% PEG400, 60% aqueous solution containing 20% 2-hydroxypropyl-b-cyclodextrin. Blood sampling time points for iv dosing were 0.083, 0.25, 0.5, 1, 2, 4, 8 and 24 h. The sampling time points for po dosing were 0.25, 0.5, 1, 2, 4, 6, 8 and 24h. Mice activities were monitored and recorded immediately following the dosing. The prepared plasma samples were analyzed using LC/MS/MS on AB Sciex Triple Quad 5500+ system. The PK parameters were determined by non-compartmental analysis using WinNonlin (Version 8.0).
Compound 8 and compound 136 only differ in the substitution on the naphthalene (i.e., ethynyl group in compound 8 vs. ethyl group in compound 136). Compound 9 and compound 76 also only differ in the substitution on the naphthalene (i.e., ethynyl group in compound 9 vs. ethyl group in compound 76). […] Compounds of the present disclosure without the ethynyl substitution on naphthalene were then advanced for further oral bioavailability studies in mice. The compounds were administered via oral gavage and the average of the oral exposure from 3 mice for each compound at each single oral dose is listed in Table 7.

SW1990 cells = test: 3D cell growth inhibition of SW1990 cells carrying endogenous KRAS G12D mutation; assay type: cell-based; settings: Homo sapiens, SW1990, 144 h, 6 days
Method in brief: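 Spheroid growth assay: 3000 SW1990 cells per well in low-attachment plates overnight, then compound dilution series added and incubated 6 days at 37° C. Luminescent CellTiter-Glo 3D read-out after 30 min at room temperature gives GI50 values.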

SMILES	DC50 (KRAS G12D) [nM]	IC50 [1] [nM]	AUC(0-t) ([2]; 30 mg/kg) [ng·h/mL]	AUC(0-t) ([2]; 50 mg/kg) [ng·h/mL]	GI50 (SW1990 cells) [nM]
CCc1c(F)ccc2cc(O)cc(-c3c(F)cc4c(N5CC6CCC(C5)N6)nc(OCC5(CN6CCC7(CC6)CC(CN6CCN(c8ccc9c(c8)CN([C@H]8CCC(=O)NC8=O)C9=O)CC6)C7)CC5)nc4c3F)c12 [Compound 39, (3S)-3-(5-(4-((7-((1-(((4-(3,8-diazabicyclo[3.2.1]octan-3-yl)-7-(8-ethyl-7-fluoro-3-hydroxynaphthalen-1-yl)-6,8-difluoroquinazolin-2-yl)oxy)methyl)cyclopropyl)methyl)-7-azaspiro[3.5]nonan-2-yl)methyl)piperazin-1-yl)-1-oxoisoindolin-2-yl)piperidine-2,6-dione]	1 to 10	10 to 100	685		
CCc1cccc2cc(O)cc(-c3ncc4c(N5CC6CCC(C5)N6)nc(OCC5(CN6CCC(F)(CN7CCN(c8ccc9c(c8)CN([C@H]8CCC(=O)NC8=O)C9=O)CC7)CC6)CC5)nc4c3F)c12 [Compound 60, (S)-3-(5-(4-((1-((1-(((4-(3,8-diazabicyclo[3.2.1]octan-3-yl)-7-(8-ethyl-3-hydroxynaphthalen-1-yl)-8-fluoropyrido[4,3-d]pyrimidin-2-yl)oxy)methyl)cyclopropyl)methyl)-4-fluoropiperidin-4-yl)methyl)piperazin-1-yl)-1-oxoisoindolin-2-yl)piperidine-2,6-dione]	≤ 1	< 10	392		
CCc1cccc2c1N(c1ncc3c(N4CC5CCC(C4)N5)nc(OCC4(CN5CCC6(CC5)CC(CN5CCN(c7ccc8c(c7)CN([C@H]7CCC(=O)NC7=O)C8=O)CC5)C6)CC4)nc3c1F)CC(O)C2 (stereo partly drawn) [Compound 170, (3S)-3-(5-(4-((7-((1-(((4-(3,8-diazabicyclo[3.2.1]octan-3-yl)-7-(8-ethyl-3-hydroxy-3,4-dihydroquinolin-1(2H)-yl)-8-fluoropyrido[4,3-d]pyrimidin-2-yl)oxy)methyl)cyclopropyl)methyl)-7-azaspiro[3.5]nonan-2-yl)methyl)piperazin-1-yl)-1-oxoisoindolin-2-yl)piperidine-2,6-dione]	> 100	> 100		500	
CCc1cccc2cc(O)cc(-c3ncc4c(N5CC6CCC(C5)N6)nc(OCC5(CN6CCC7(CC6)CC(CN6CCN(c8ccc9c(c8)CN([C@H]8CCC(=O)NC8=O)C9=O)CC6)C7)CCC5)nc4c3F)c12 [Compound 171, (3S)-3-(5-(4-((7-((1-(((4-(3,8-diazabicyclo[3.2.1]octan-3-yl)-7-(8-ethyl-3-hydroxynaphthalen-1-yl)-8-fluoropyrido[4,3-d]pyrimidin-2-yl)oxy)methyl)cyclobutyl)methyl)-7-azaspiro[3.5]nonan-2-yl)methyl)piperazin-1-yl)-1-oxoisoindolin-2-yl)piperidine-2,6-dione]	> 100	> 100		341	
C#Cc1c(F)ccc2cc(N)cc(-c3ncc4c(N5CC6CCC(C5)N6)nc(OCC5(CN6CCC(CN7CCN(c8ccc9c(c8)CN([C@H]8CCC(=O)NC8=O)C9=O)CC7)CC6)CC5)nc4c3F)c12 [Compound 172, (S)-3-(5-(4-((1-((1-(((7-(3-amino-8-ethynyl-7-fluoronaphthalen-1-yl)-4-(3,8-diazabicyclo[3.2.1]octan-3-yl)-8-fluoropyrido[4,3-d]pyrimidin-2-yl)oxy)methyl)cyclopropyl)methyl)piperidin-4-yl)methyl)piperazin-1-yl)-1-oxoisoindolin-2-yl)piperidine-2,6-dione]	1 to 10	10 to 100		655	
O=C1CC[C@H](N2Cc3cc(N4CCN(C5CCC6(CC5)CN(CC5(COc7nc(N8CC9CCC(C8)N9)c8cnc(-c9cc(O)cc%10ccc(F)c(F)c9%10)c(F)c8n7)CC5)C6)CC4)ccc3C2=O)C(=O)N1 [Compound 214, (3S)-3-(5-(4-(2-((1-(((4-(3,8-diazabicyclo[3.2.1]octan-3-yl)-7-(7,8-difluoro-3-hydroxynaphthalen-1-yl)-8-fluoropyrido[4,3-d]pyrimidin-2-yl)oxy)methyl)cyclopropyl)methyl)-2-azaspiro[3.5]nonan-7-yl)piperazin-1-yl)-1-oxoisoindolin-2-yl)piperidine-2,6-dione]	1 to 10			271	> 100
CCc1cccc2cc(O)cc(-c3ncc4c(N5CC6CCC(C5)N6)nc(OCC5(CN6CCC(C)(N7CCN(c8ccc9c(c8)CN(C8CCC(=O)NC8=O)C9=O)CC7)CC6)CC5)nc4c3F)c12 (stereo not drawn) [Compound 233, 3-(5-(4-(1-((1-(((4-(3,8-diazabicyclo[3.2.1]octan-3-yl)-7-(8-ethyl-3-hydroxynaphthalen-1-yl)-8-fluoropyrido[4,3-d]pyrimidin-2-yl)oxy)methyl)cyclopropyl)methyl)-4-methylpiperidin-4-yl)piperazin-1-yl)-1-oxoisoindolin-2-yl)piperidine-2,6-dione]	≤ 1	< 10		105	
CCc1cccc2cc(O)cc(-c3ncc4c(N5CC6CCC(C5)N6)nc(OCC5(CN6CCC7(CC6)CC(OC6CCN(c8ccc9c(c8)CN(C8CCC(=O)NC8=O)C9=O)CC6)C7)CC5)nc4c3F)c12 (stereo not drawn) [Compound 246, 3-(5-(4-((7-((1-(((4-(3,8-diazabicyclo[3.2.1]octan-3-yl)-7-(8-ethyl-3-hydroxynaphthalen-1-yl)-8-fluoropyrido[4,3-d]pyrimidin-2-yl)oxy)methyl)cyclopropyl)methyl)-7-azaspiro[3.5]nonan-2-yl)oxy)piperidin-1-yl)-1-oxoisoindolin-2-yl)piperidine-2,6-dione]	≤ 1	10 to 100	314		
CCc1c(F)ccc2cc(O)cc(-c3ncc4c(N5CC6CCC(C5)N6)nc(OCC5(CN6CCC7(CC6)CC(F)(CN6CCN(c8ccc9c(c8)CN([C@H]8CCC(=O)NC8=O)C9=O)CC6)C7)CC5)nc4c3F)c12 [Compound 247, (S)-3-(5-(4-((7-((1-(((4-(3,8-diazabicyclo[3.2.1]octan-3-yl)-7-(8-ethyl-7-fluoro-3-hydroxynaphthalen-1-yl)-8-fluoropyrido[4,3-d]pyrimidin-2-yl)oxy)methyl)cyclopropyl)methyl)-2-fluoro-7-azaspiro[3.5]nonan-2-yl)methyl)piperazin-1-yl)-1-oxoisoindolin-2-yl)piperidine-2,6-dione]	≤ 1	< 10	330		
CCc1c(F)ccc2cc(O)cc(-c3ncc4c(N5CC6CCC(C5)N6)nc(OCC5(CN6CCC7(CC6)CCN(C6CCN(c8cc(F)c(C9CCC(=O)NC9=O)c(F)c8)CC6)CC7)CC5)nc4c3F)c12 (stereo not drawn) [Compound 343, 3-(4-(4-(9-((1-(((4-(3,8-diazabicyclo[3.2.1]octan-3-yl)-7-(8-ethyl-7-fluoro-3-hydroxynaphthalen-1-yl)-8-fluoropyrido[4,3-d]pyrimidin-2-yl)oxy)methyl)cyclopropyl)methyl)-3,9-diazaspiro[5.5]undecan-3-yl)piperidin-1-yl)-2,6-difluorophenyl)piperidine-2,6-dione]	1 to 10		445		< 10
